Experimental findings from patent US20250236608A1, “EGFR INHIBITORS” (Blueprint Medicines Corporation, priority 2022, published 2025) are described below.

Broadly, the IC50 is the point on the concentration scale where inhibition reaches its midpoint.

One assay addresses EGFR L858R (Homo sapiens (Human), UniProt P00533, L858R). Nature of the assay: Biochemical EGFR inhibition assay, EGFR L858R. Conditions: Caliper mobility shift; 1.0 mM ATP or ATP Km; read-out: Enz EGFR_L858R IC50.
The target in assay [1] is pEGFR (Tyr1068) in PC-9 cells (Ex19Del) (Homo sapiens (Human), UniProt P00533, DEL746-750). Nature of the assay: PC-9 pEGFR AlphaLISA assay. In kind it is cell-based. The following applies: 4 hours incubation, p-EGFR (Tyr1068) AlphaLISA, read-out: Ext pEGFR_PC-9 Ex19Del IC50. In outline: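 PC-9 cells seeded overnight in phenol-free DMEM with 10% FBS, then treated 4 h at 37°C with a 10-point, 4-fold compound series. Lysates assayed for pEGFR Tyr1068 by AlphaLISA SureFire; IC50 from % inhibition vs log concentration.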
Sequence of pEGFR (Tyr1068) in PC-9 cells (Ex19Del) (P00533 other isoform, or with tags, fused parts or gaps del 746-750): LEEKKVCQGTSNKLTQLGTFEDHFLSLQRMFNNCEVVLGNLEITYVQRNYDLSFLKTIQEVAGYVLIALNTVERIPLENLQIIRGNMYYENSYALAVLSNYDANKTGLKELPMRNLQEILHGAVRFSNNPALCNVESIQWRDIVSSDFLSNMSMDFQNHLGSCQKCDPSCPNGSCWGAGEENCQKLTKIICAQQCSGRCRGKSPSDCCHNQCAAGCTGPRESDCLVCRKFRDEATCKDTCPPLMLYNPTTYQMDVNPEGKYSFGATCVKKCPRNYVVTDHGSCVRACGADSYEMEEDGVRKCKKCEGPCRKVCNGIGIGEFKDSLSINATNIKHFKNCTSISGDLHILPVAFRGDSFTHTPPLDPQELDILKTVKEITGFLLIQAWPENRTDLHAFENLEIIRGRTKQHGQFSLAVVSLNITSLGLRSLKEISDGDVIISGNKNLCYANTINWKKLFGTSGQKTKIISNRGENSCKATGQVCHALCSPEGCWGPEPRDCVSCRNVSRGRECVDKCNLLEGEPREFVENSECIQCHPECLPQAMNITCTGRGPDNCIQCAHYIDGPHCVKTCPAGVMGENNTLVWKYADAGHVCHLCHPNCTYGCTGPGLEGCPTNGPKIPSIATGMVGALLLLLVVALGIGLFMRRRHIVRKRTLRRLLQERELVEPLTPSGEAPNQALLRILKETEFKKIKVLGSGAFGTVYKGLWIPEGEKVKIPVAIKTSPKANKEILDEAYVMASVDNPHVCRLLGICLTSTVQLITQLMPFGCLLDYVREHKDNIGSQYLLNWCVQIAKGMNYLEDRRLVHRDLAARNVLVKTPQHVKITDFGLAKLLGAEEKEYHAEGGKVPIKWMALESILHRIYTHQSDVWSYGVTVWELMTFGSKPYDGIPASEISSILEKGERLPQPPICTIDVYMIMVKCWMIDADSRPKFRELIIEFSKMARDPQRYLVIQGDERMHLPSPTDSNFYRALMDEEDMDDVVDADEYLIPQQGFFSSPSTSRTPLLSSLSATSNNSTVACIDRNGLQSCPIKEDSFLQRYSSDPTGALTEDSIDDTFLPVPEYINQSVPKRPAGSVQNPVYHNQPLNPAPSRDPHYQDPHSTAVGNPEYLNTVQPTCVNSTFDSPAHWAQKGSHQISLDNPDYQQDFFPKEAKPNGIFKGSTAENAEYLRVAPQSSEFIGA

In another assay the target is EGFR (d746-750) (Homo sapiens (Human), UniProt P00533, DEL746-750). Nature of the assay: Biochemical EGFR inhibition assay, EGFR (d746-750). The following applies: Caliper mobility shift; 1.0 mM ATP or ATP Km; read-out: Enz EGFR_Exon19-del746-750 IC50.
Sequence of EGFR (d746-750) (P00533 other isoform, or with tags, fused parts or gaps del 1-694/del 746-750 limits assumed): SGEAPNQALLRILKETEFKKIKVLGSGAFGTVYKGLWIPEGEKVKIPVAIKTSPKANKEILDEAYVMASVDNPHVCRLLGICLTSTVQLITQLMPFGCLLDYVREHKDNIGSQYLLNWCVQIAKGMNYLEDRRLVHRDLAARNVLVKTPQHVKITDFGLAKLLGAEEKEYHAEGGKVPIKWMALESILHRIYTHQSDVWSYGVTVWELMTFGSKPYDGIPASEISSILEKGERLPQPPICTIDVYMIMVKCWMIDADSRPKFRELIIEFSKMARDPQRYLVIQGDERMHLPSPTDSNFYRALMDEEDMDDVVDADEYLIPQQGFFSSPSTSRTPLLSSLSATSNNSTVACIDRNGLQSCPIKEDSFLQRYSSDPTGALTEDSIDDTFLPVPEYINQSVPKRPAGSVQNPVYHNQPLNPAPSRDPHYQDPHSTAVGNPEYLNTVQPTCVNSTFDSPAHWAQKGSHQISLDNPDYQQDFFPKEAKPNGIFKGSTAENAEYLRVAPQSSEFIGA

Structures are written as SMILES.

Sequence of EGFR L858R (P00533 25-1210 L858R): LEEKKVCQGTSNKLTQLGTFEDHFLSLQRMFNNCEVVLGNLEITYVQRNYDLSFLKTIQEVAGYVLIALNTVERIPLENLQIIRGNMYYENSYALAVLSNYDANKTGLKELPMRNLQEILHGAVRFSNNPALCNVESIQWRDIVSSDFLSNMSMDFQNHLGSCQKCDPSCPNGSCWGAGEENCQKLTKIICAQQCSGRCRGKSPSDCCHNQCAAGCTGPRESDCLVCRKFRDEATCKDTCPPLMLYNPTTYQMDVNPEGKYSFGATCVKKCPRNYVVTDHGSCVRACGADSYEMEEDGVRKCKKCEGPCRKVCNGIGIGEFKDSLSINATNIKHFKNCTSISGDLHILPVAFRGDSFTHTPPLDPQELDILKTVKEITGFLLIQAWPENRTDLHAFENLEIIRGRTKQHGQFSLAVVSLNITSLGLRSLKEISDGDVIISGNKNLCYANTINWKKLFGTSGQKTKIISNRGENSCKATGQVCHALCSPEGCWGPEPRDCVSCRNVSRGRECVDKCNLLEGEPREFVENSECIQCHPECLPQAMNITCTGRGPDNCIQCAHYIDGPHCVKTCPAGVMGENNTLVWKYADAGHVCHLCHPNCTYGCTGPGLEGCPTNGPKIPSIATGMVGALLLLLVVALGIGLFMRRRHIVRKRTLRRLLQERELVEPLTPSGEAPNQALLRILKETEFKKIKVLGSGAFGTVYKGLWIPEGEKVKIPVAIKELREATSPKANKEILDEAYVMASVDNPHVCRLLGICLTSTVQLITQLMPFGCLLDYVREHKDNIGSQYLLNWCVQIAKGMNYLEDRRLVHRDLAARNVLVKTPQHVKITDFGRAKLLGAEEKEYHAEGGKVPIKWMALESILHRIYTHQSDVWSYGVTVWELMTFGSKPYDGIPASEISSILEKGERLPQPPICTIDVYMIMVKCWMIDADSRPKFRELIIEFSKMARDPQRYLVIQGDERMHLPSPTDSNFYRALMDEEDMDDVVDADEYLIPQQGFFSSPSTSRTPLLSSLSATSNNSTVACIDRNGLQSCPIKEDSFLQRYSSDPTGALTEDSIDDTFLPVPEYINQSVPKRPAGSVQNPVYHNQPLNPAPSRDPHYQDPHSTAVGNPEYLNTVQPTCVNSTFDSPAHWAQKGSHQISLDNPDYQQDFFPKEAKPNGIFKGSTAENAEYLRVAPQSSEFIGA

As to `COc1cc2c(-c3cn(C)nc3-c3ccccc3)ncnc2cc1N1CC2(CN(C(C)=O)C2)C1` [Example 447, 1-(6-(6-methoxy-4-(1-methyl-3-phenyl-1H-pyrazol-4-yl)quinazolin-7-yl)-2,6-diazaspiro[3.3]heptan-2-yl)ethan-1-one], the values for the IC50 (at EGFR L858R; in assay [1]; at EGFR (d746-750)) were 1.6 nM, 1.6 nM and 0.9 nM, respectively.

Consider `CCC(=O)Nc1cc2c(-c3cn(C)nc3-c3ccccc3)ncnc2cc1-c1ncccn1` [Example 449, N-(4-(1-methyl-3-phenyl-1H-pyrazol-4-yl)-7-(pyrimidin-2-yl)quinazolin-6-yl)propionamide], for which the IC50 at EGFR L858R was found to be 1.3 nM; in assay [1], 1.9 nM; at EGFR (d746-750) it was 0.9 nM.

Consider `CCC(=O)Nc1cc2c(-c3cn(C)nc3-c3ccccc3)ncnc2cc1-n1ccc(C)n1` [Example 450, N-(7-(3-methyl-1H-pyrazol-1-yl)-4-(1-methyl-3-phenyl-1H-pyrazol-4-yl)quinazolin-6-yl)propionamide], for which the figures for the IC50 (at EGFR L858R; in assay [1]; at EGFR (d746-750)) were 1.2 nM, 1 nM and 0.7 nM, respectively.

On to `CCC(=O)Nc1cc2c(-c3cn(C)nc3-c3ccccc3)ncnc2cc1C#CCN1CCOCC1` [Example 451, N-(4-(1-methyl-3-phenyl-1H-pyrazol-4-yl)-7-(3-morpholinoprop-1-yn-1-yl)quinazolin-6-yl)propionamide], for which the IC50 at EGFR L858R is 3.5 nM; in assay [1], 2.8 nM; on EGFR (d746-750), 2 nM.

On to `CCc1cc2ncnc(-c3cn(C)nc3-c3ccccc3)c2nc1NC(=O)C12COCC1C2` (stereo not drawn) [Example 452, N-(7-ethyl-4-(1-methyl-3-phenyl-1H-pyrazol-4-yl)pyrido[3,2-d]pyrimidin-6-yl)-3-oxabicyclo[3.1.0]hexane-1-carboxamide], for which the IC50 at EGFR L858R came to 28.9 nM; in assay [1], 14.8 nM; at EGFR (d746-750) it was 5.3 nM.

As to `CCC(=O)Nc1cc2c(-c3cn(C)nc3-c3c(F)cccc3F)ncnc2cc1-c1ccn(C)n1` [Example 453, N-(4-(3-(2,6-difluorophenyl)-1-methyl-1H-pyrazol-4-yl)-7-(1-methyl-1H-pyrazol-3-yl)quinazolin-6-yl)propionamide], the IC50 on EGFR L858R turned out to be 1.3 nM; in assay [1] it was 0.4 nM; at EGFR (d746-750), 0.7 nM.

On to `Cn1cc(-c2ncnc3cc(C#CCN4CCOCC4)c(NC(=O)C45CC(C4)C5)nc23)c(-c2ccccc2)n1` [Example 454, N-(4-(1-methyl-3-phenyl-1H-pyrazol-4-yl)-7-(3-morpholinoprop-1-yn-1-yl)pyrido[3,2-d]pyrimidin-6-yl)bicyclo[1.1.1]pentane-1-carboxamide], for which the IC50 stood at 18.1 nM on EGFR L858R, 11 nM in assay [1] and 4.8 nM on EGFR (d746-750).

Consider `Cn1cc(-c2ncnc3cc(OC4CC4)c(NC(=O)[C@]45COCC4C5)nc23)c(-c2ccccc2)n1` (stereo partly drawn) [Example 459, (1S)—N-[7-cyclopropoxy-4-(1-methyl-3-phenyl-1H-pyrazol-4-yl)pyrido[3,2-d]pyrimidin-6-yl]-3-oxabicyclo[3.1.0]hexane-1-carboxamide], for which the IC50 on EGFR L858R worked out at 3.8 nM; in assay [1], 1.2 nM; at EGFR (d746-750) it was 1 nM.

On to `CN1C[C@H]2C[C@@]2(C(=O)Nc2nc3c(-c4cn(C)nc4-c4ccccc4)ncnc3cc2OC2CC2)C1` [Example 460, (1S,5S)—N-[7-cyclopropoxy-4-(1-methyl-3-phenyl-1H-pyrazol-4-yl)pyrido[3,2-d]pyrimidin-6-yl]-3-methyl-3-azabicyclo[3.1.0]hexane-1-carboxamide], for which the values for the IC50 (on EGFR L858R; in assay [1]; at EGFR (d746-750)) were 5.7 nM, 3.2 nM and 1.5 nM, respectively.

Regarding `CN(C)C12CC(C(=O)Nc3nc4c(-c5cn(C)nc5-c5ccc(F)cc5)ncnc4cc3OC3CC3)(C1)C2` [Example 461, N-{7-cyclopropoxy-4-[3-(4-fluorophenyl)-1-methyl-1H-pyrazol-4-yl]pyrido[3,2-d]pyrimidin-6-yl}-3-(dimethylamino) bicyclo[1.1.1]pentane-1-carboxamide], the IC50 on EGFR L858R stood at 12.7 nM; in assay [1], 7.2 nM; at EGFR (d746-750) it was 2.9 nM.
